# What was measured:
# bedstraw = assay: Test B pre/postemergence bedstraw; format: in vivo, Galium aparine
# Method in brief: (§1)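 Herbicidal effect was estimated by eye on a ten-point control scale after plants spent twelve to sixteen days in a greenhouse following soil or foliar treatment. Foliar sprays targeted plants at one to four leaves; all doses were formulated in a non-phytotoxic solvent with surfactant.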
# blackgrass = assay: Test B pre/postemergence blackgrass; format: in vivo, Alopecurus myosuroides
# Method in brief: as §1
# surinam grass = assay: Test B pre/postemergence surinam grass; format: in vivo, Brachiaria decumbens
# Method in brief: as §1
# cocklebur = assay: Test B pre/postemergence cocklebur; format: in vivo, Xanthium strumarium
# Method in brief: as §1
# crabgrass = assay: Test B pre/postemergence crabgrass; format: in vivo, Digitaria sanguinalis
# Method in brief: as §1
# giant foxtail = assay: Test B pre/postemergence giant foxtail; format: in vivo, Setaria faberii
# Method in brief: as §1
# morningglory = assay: Test B pre/postemergence morningglory; format: in vivo, Ipomoea hederacea
# Method in brief: as §1
# pigweed = assay: Test B pre/postemergence pigweed; format: in vivo, Amaranthus retroflexus
# Method in brief: as §1
# soybean = assay: Test B pre/postemergence soybean; format: in vivo, Glycine max
# Method in brief: as §1
# velvetleaf = assay: Test B pre/postemergence velvetleaf; format: in vivo, Abutilon theophrasti
# Method in brief: as §1
# wheat = assay: Test B pre/postemergence wheat; format: in vivo, Triticum aestivum
# Method in brief: as §1
# wild oat = assay: Test B pre/postemergence wild oat; format: in vivo, Avena fatua
# Method in brief: as §1
# purple nutsedge = assay: Test B pre/postemergence purple nutsedge; format: in vivo, Cyperus rotundus
# Method in brief: as §1
# rice = assay: Test B flood test rice; format: in vivo, Oryza sativa
# Method in brief: (§2)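 Flood test on plants grown to the 2-leaf stage; treated plants kept in greenhouse twelve to sixteen days, then visually rated against controls on a 0 (no effect) to 10 (complete control) scale.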
# smallflower flatsedge = assay: Test B flood test smallflower flatsedge; format: in vivo, Cyperus difformis
# Method in brief: as §2
# bamyardgrass = assay: Test B flood test barnyardgrass; format: in vivo, Echinochloa crus-galli
# Method in brief: as §2
# [1] = Postemergence, Rate 62 g/ha, scale 0 to 10, 0 is no effect, 10 is complete control
# [2] = Postemergence, Rate 250 g/ha, scale 0 to 10, 0 no effect, 10 complete control
# [3] = Preemergence, Rate 62 g/ha, scale 0 to 10, 0 is no effect, 10 is complete control
# [4] = Preemergence, Rate 125 g/ha, scale 0 to 10 (0 no effect, 10 complete control)
# [5] = Preemergence, Rate 250 g/ha, scale of 0 to 10 where 0 is no effect and 10 is complete control
# [6] = Preemergence, Rate 500 g/ha, scale 0 (no effect) to 10 (complete control)
# [7] = Rate 125 g/ha, Postemergence, scale 0 to 10, 0 no effect, 10 complete control
# [8] = Rate 500 g/ha, Postemergence, 0 to 10 scale (0 no effect, 10 complete control)
# [9] = Rate 125 g/ha, Postemergence section (flood test species), scale 0 to 10, 0 no effect, 10 complete control
# [10] = Rate 500 g/ha, Postemergence section of Table B, 0 to 10 scale (0 no effect, 10 complete control)
# [11] = flood test, listed under Postemergence, Rate 250 g/ha, scale 0 to 10, 0 no effect, 10 complete control
compound,measurement,setting,value
CC(C)N(C(=O)n1oc(=O)n(-c2ccc(Cl)cc2C(F)(F)F)c1=O)c1ccc(F)cc1 [Compound 20],Bedstraw plant response rating,bedstraw; [1],3
same,Bedstraw plant response rating,bedstraw; [2],4
same,"Plant response rating, Bedstraw",bedstraw; [3],0
same,"Plant response rating, Bedstraw",bedstraw; [4],0
same,"Plant response rating, Bedstraw",bedstraw; [5],2
same,Bedstraw plant response rating,bedstraw; [6],6
same,Bedstraw plant response rating,bedstraw; [7],3
same,Bedstraw plant response rating,bedstraw; [8],5
same,Blackgrass plant response rating,blackgrass; [1],0
same,Blackgrass plant response rating,blackgrass; [2],0
same,"Plant response rating, Blackgrass",blackgrass; [3],0
same,"Plant response rating, Blackgrass",blackgrass; [4],1
same,"Plant response rating, Blackgrass",blackgrass; [5],1
same,Blackgrass plant response rating,blackgrass; [6],5
same,Blackgrass plant response rating,blackgrass; [7],0
same,Blackgrass plant response rating,blackgrass; [8],2
same,B. signalgrass plant response rating,surinam grass; [1],0
same,B. signalgrass plant response rating,surinam grass; [2],0
same,"Plant response rating, B. signalgrass",surinam grass; [3],0
same,"Plant response rating, B. signalgrass",surinam grass; [4],0
same,"Plant response rating, B. signalgrass",surinam grass; [5],0
same,B. signalgrass plant response rating,surinam grass; [6],0
same,B. signalgrass plant response rating,surinam grass; [7],0
same,B. signalgrass plant response rating,surinam grass; [8],0
same,Cocklebur plant response rating,cocklebur; [1],0
same,Cocklebur plant response rating,cocklebur; [2],0
same,"Plant response rating, Cocklebur",cocklebur; [3],0
same,"Plant response rating, Cocklebur",cocklebur; [4],0
same,"Plant response rating, Cocklebur",cocklebur; [5],0
same,Cocklebur plant response rating,cocklebur; [6],0
same,Cocklebur plant response rating,cocklebur; [7],0
same,Cocklebur plant response rating,cocklebur; [8],0
same,Crabgrass plant response rating,crabgrass; [1],0
same,Crabgrass plant response rating,crabgrass; [2],3
same,"Plant response rating, Crabgrass",crabgrass; [3],1
same,"Plant response rating, Crabgrass",crabgrass; [4],2
same,"Plant response rating, Crabgrass",crabgrass; [5],6
same,Crabgrass plant response rating,crabgrass; [6],7
same,Crabgrass plant response rating,crabgrass; [7],0
same,Crabgrass plant response rating,crabgrass; [8],7
same,Giant foxtail plant response rating,giant foxtail; [1],0
same,Giant foxtail plant response rating,giant foxtail; [2],1
same,"Plant response rating, Giant foxtail",giant foxtail; [3],3
same,"Plant response rating, Giant foxtail",giant foxtail; [4],5
same,"Plant response rating, Giant foxtail",giant foxtail; [5],7
same,Giant foxtail plant response rating,giant foxtail; [6],9
same,Giant foxtail plant response rating,giant foxtail; [7],0
same,Giant foxtail plant response rating,giant foxtail; [8],1
same,Morningglory plant response rating,morningglory; [1],4
same,Morningglory plant response rating,morningglory; [2],7
same,"Plant response rating, Morningglory",morningglory; [3],0
same,"Plant response rating, Morningglory",morningglory; [4],0
same,"Plant response rating, Morningglory",morningglory; [5],0
same,Morningglory plant response rating,morningglory; [6],0
same,Morningglory plant response rating,morningglory; [7],7
same,Morningglory plant response rating,morningglory; [8],8
same,Redroot pigweed plant response rating,pigweed; [1],3
same,Redroot pigweed plant response rating,pigweed; [2],3
same,"Plant response rating, Redroot pigweed",pigweed; [3],0
same,"Plant response rating, Redroot pigweed",pigweed; [4],2
same,"Plant response rating, Redroot pigweed",pigweed; [5],4
same,Redroot pigweed plant response rating,pigweed; [6],9
same,Redroot pigweed plant response rating,pigweed; [7],3
same,Redroot pigweed plant response rating,pigweed; [8],4
same,Soybean plant response rating,soybean; [1],3
same,Soybean plant response rating,soybean; [2],3
same,"Plant response rating, Soybean",soybean; [3],0
same,"Plant response rating, Soybean",soybean; [4],0
same,"Plant response rating, Soybean",soybean; [5],0
same,Soybean plant response rating,soybean; [6],0
same,Soybean plant response rating,soybean; [7],3
same,Velvetleaf plant response rating,velvetleaf; [1],0
same,Velvetleaf plant response rating,velvetleaf; [2],0
same,"Plant response rating, Velvetleaf",velvetleaf; [3],0
same,"Plant response rating, Velvetleaf",velvetleaf; [4],0
same,"Plant response rating, Velvetleaf",velvetleaf; [5],0
same,Velvetleaf plant response rating,velvetleaf; [6],0
same,Velvetleaf plant response rating,velvetleaf; [7],0
same,Wheat plant response rating,wheat; [1],0
same,Wheat plant response rating,wheat; [2],0
same,"Plant response rating, Wheat",wheat; [3],0
same,"Plant response rating, Wheat",wheat; [4],0
same,"Plant response rating, Wheat",wheat; [5],0
same,Wheat plant response rating,wheat; [6],0
same,Wheat plant response rating,wheat; [7],0
same,Wild oats plant response rating,wild oat; [1],0
same,Wild oats plant response rating,wild oat; [2],0
same,"Plant response rating, Wild oats",wild oat; [4],0
same,"Plant response rating, Wild oats",wild oat; [5],0
same,Wild oats plant response rating,wild oat; [6],0
same,Wild oats plant response rating,wild oat; [7],0
same,Nutsedge plant response rating,purple nutsedge; [1],0
same,Nutsedge plant response rating,purple nutsedge; [2],0
same,"Plant response rating, Nutsedge",purple nutsedge; [3],0
same,"Plant response rating, Nutsedge",purple nutsedge; [4],0
same,"Plant response rating, Nutsedge",purple nutsedge; [5],0
same,Nutsedge plant response rating,purple nutsedge; [6],0
same,Nutsedge plant response rating,purple nutsedge; [7],0
same,Nutsedge plant response rating,purple nutsedge; [8],0
same,Rice plant response rating,rice; [1],0
same,Rice plant response rating,rice; [9],0
same,Rice plant response rating,rice; [10],2
same,Rice plant response rating,rice; [11],0
same,S. Flatsedge plant response rating,smallflower flatsedge; [1],0
same,S. Flatsedge plant response rating,smallflower flatsedge; [9],0
same,S. Flatsedge plant response rating,smallflower flatsedge; [11],0
same,Barnyardgrass plant response rating,bamyardgrass; [1],0
same,Barnyardgrass plant response rating,bamyardgrass; [9],0
same,Barnyardgrass plant response rating,bamyardgrass; [10],0
same,Barnyardgrass plant response rating,bamyardgrass; [11],0

# From patent US6737383B1, “Herbicidal oxadiazolidines” (priority 1999, dated 2004)
